Source: patent US20190134005A1 (BioMarin Pharmaceutical Inc., priority 2016, published 2019)

The compounds below were run against T1, human CGT (Homo sapiens, UniProt Q16880) (assay: Assay 1: CGT Enzymatic Assay (RapidFire/MS/MS, 0.01% Tween 80)). Conditions: Table 1, Compounds of Formula (I) and Formula (II); CGT enzymatic assay; read-out: IC50.
T1 sequence (Q16880 21-541): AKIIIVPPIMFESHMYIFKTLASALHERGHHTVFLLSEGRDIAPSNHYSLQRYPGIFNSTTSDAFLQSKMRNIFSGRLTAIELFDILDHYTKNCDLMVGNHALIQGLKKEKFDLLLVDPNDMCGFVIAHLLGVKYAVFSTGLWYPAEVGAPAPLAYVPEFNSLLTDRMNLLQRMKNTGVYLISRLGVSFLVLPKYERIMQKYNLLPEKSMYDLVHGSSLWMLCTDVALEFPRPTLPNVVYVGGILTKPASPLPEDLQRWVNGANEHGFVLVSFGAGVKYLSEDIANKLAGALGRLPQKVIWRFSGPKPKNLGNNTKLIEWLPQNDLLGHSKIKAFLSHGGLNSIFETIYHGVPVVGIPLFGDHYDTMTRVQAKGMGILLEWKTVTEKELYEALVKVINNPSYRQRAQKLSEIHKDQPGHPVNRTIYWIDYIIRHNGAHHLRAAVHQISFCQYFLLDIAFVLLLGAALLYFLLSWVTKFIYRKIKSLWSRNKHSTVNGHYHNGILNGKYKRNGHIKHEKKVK
Type: biochemical
CCC[C@@H]1N(c2ccc(Br)cc2)C(=O)N(c2ccc(Br)cc2)C1(O)c1cccc(C(F)(F)F)c1 (stereo partly drawn) [Compound 100-1, (5S)-1,3-bis(4-bromophenyl)-4-hydroxy-5-propyl-4-(3-(trifluoromethyl)phenyl)imidazolidin-2-one] was tested, and the IC50 was < 1000 nM.
In the case of CCC[C@H]1N(c2ccc(Br)cc2)C(=O)N(c2ccc(Br)cc2)C1(O)c1cccc(C(F)(F)F)c1 (stereo partly drawn) [Compound 100-2, (5R)-1,3-bis(4-bromophenyl)-4-hydroxy-5-propyl-4-(3-(trifluoromethyl)phenyl)imidazolidin-2-one], the IC50 is reported as < 1000 nM.
With CCCC1N(c2ccc(Cl)cc2)C(=O)N(c2ccc(Cl)cc2)C1(O)c1cccc(C#N)c1 (stereo not drawn) [Compound 101, 3-(1,3-bis(4-chlorophenyl)-4-hydroxy-2-oxo-5-propylimidazolidin-4-yl)benzonitrile] the IC50 was < 1000 nM.
With CCC[C@H]1N(c2ccc(Cl)cc2)C(=O)N(c2ccc(Cl)cc2)C1(O)c1cccc(C#N)c1 (stereo partly drawn) [Compound 101-2, 3-((5R)-1,3-bis(4-chlorophenyl)-4-hydroxy-2-oxo-5-propylimidazolidin-4-yl)benzonitrile] the IC50 was < 1000 nM.
For Cc1cc(C#N)cc(C2(O)CN(c3ccc(Cl)cc3)C(=O)N2c2ccc(Cl)cc2)c1 (stereo not drawn) [Compound 102, 3-(1,3-bis(4-chlorophenyl)-4-hydroxy-2-oxoimidazolidin-4-yl)-5-methylbenzonitrile], the IC50 was 1000 to 10000 nM.
CC#Cc1cccc(C2(O)C(C)N(c3ccc(Cl)cc3)C(=O)N2c2ccc(Cl)cc2)c1 (stereo not drawn) [Compound 103, 1,3-bis(4-chlorophenyl)-4-hydroxy-5-methyl-4-(3-(prop-1-yn-1-yl)phenyl)imidazolidin-2-one] was tested, and the IC50 was < 1000 nM.
With CC#Cc1cccc(C2(O)[C@H](C)N(c3ccc(Cl)cc3)C(=O)N2c2ccc(Cl)cc2)c1 (stereo partly drawn) [Compound 103-1, (5S)-1,3-bis(4-chlorophenyl)-4-hydroxy-5-methyl-4-(3-(prop-1-yn-1-yl)phenyl)imidazolidin-2-one] the IC50 was < 1000 nM.
For CC#Cc1cccc(C2(O)[C@@H](C)N(c3ccc(Cl)cc3)C(=O)N2c2ccc(Cl)cc2)c1 (stereo partly drawn) [Compound 103-2, (5R)-1,3-bis(4-chlorophenyl)-4-hydroxy-5-methyl-4-(3-(prop-1-yn-1-yl)phenyl)imidazolidin-2-one], the IC50 was < 1000 nM.
With CCc1ccc(N2C(=O)N(c3ccc(CC)cc3)C(O)(c3cccc(C#N)c3)C2C)cc1 (stereo not drawn) [Compound 104, 3-(1,3-bis(4-ethylphenyl)-4-hydroxy-5-methyl-2-oxoimidazolidin-4-yl)benzonitrile] the IC50 was < 1000 nM.
In the case of Cc1ccc(N2C(=O)N(c3ccc(C)cc3)C(O)(c3cccc(C#N)c3)C2C)cc1 (stereo not drawn) [Compound 105, 3-(4-hydroxy-5-methyl-2-oxo-1,3-di-p-tolylimidazolidin-4-yl)benzonitrile], the IC50 is reported as < 1000 nM.
CCC1N(c2ccc(Cl)cc2)C(=O)N(c2ccc(Cl)cc2)C1(O)c1cccc(C#N)c1 (stereo not drawn) [Compound 106, 3-(1,3-bis(4-chlorophenyl)-5-ethyl-4-hydroxy-2-oxoimidazolidin-4-yl)benzonitrile] was tested, and the IC50 was < 1000 nM.
Cc1cccc(N2C(=O)N(c3cccc(C)c3)C(O)(c3cccc(OC(F)(F)F)c3)C2C)c1 (stereo not drawn) [Compound 107, 4-hydroxy-5-methyl-1,3-di-m-tolyl-4-(3-(trifluoromethoxy)phenyl)imidazolidin-2-one] was tested, and the IC50 was < 1000 nM.
Work on C#Cc1cc(Cl)cc(C2(O)CN(c3ccc(Cl)cc3)C(=O)N2c2ccc(Cl)cc2)c1 (stereo not drawn) [Compound 108, 4-(3-chloro-5-ethynylphenyl)-1,3-bis(4-chlorophenyl)-4-hydroxyimidazolidin-2-one] yielded an IC50 of 1000 to 10000 nM.
Work on O=C1N(c2ccc(Cl)cc2)C(c2cccs2)C(O)(c2ccccc2)N1c1ccc(Cl)cc1 (stereo not drawn) [Compound 109, 1,3-bis(4-chlorophenyl)-4-hydroxy-4-phenyl-5-(thiophen-2-yl)imidazolidin-2-one] yielded an IC50 of 1000 to 10000 nM.
With N#Cc1cc(Cl)cc(C2(O)CN(c3ccc(Br)cc3)C(=O)N2c2ccc(Cl)cc2)c1 (stereo not drawn) [Compound 110, 3-(1-(4-bromophenyl)-3-(4-chlorophenyl)-4-hydroxy-2-oxoimidazolidin-4-yl)-5-chlorobenzonitrile] the IC50 was < 1000 nM.
For N#Cc1ccc(N2CC(O)(c3ccccc3)N(c3ccc(C#N)cc3)C2=O)cc1 (stereo not drawn) [Compound 111, 4,4′-(4-hydroxy-2-oxo-4-phenylimidazolidine-1,3-diyl)dibenzonitrile], the IC50 was > 50000 nM.
With CCC[C@@H]1N(c2ccc(Br)cc2)C(=O)N(c2ccc(Br)cc2)C1(O)c1cccc(OC(F)(F)F)c1 (stereo partly drawn) [Compound 112-1, (5S)-1,3-bis(4-bromophenyl)-4-hydroxy-5-propyl-4-(3-(trifluoromethoxy)phenyl)imidazolidin-2-one] the IC50 was < 1000 nM.
CCC[C@H]1N(c2ccc(Br)cc2)C(=O)N(c2ccc(Br)cc2)C1(O)c1cccc(OC(F)(F)F)c1 (stereo partly drawn) [Compound 112-2, (5R)-1,3-bis(4-bromophenyl)-4-hydroxy-5-propyl-4-(3-(trifluoromethoxy)phenyl)imidazolidin-2-one] was tested, and the IC50 was < 1000 nM.
In the case of N#Cc1cc(Cl)cc(C2(O)CN(c3ccc(Br)cc3)C(=O)N2c2ccc(Br)cc2)c1 (stereo not drawn) [Compound 113, 3-(1,3-bis(4-bromophenyl)-4-hydroxy-2-oxoimidazolidin-4-yl)-5-chlorobenzonitrile], the IC50 is reported as 1000 to 10000 nM.
In the case of CCCC1N(c2ccc(Cl)cc2)C(=O)N(c2ccc(Cl)cc2)C1(O)c1cccc(Cl)c1 (stereo not drawn) [Compound 114, 4-(3-chlorophenyl)-1,3-bis(4-chlorophenyl)-4-hydroxy-5-propylimidazolidin-2-one], the IC50 is reported as < 1000 nM.
For CCC[C@@H]1N(c2ccc(Cl)cc2)C(=O)N(c2ccc(Cl)cc2)C1(O)c1cccc(Cl)c1 (stereo partly drawn) [Compound 114-1, (5S)-4-(3-chlorophenyl)-1,3-bis(4-chlorophenyl)-4-hydroxy-5-propylimidazolidin-2-one], the IC50 was < 1000 nM.
CCC[C@H]1N(c2ccc(Cl)cc2)C(=O)N(c2ccc(Cl)cc2)C1(O)c1cccc(Cl)c1 (stereo partly drawn) [Compound 114-2, (5R)-4-(3-chlorophenyl)-1,3-bis(4-chlorophenyl)-4-hydroxy-5-propylimidazolidin-2-one] was tested, and the IC50 was < 1000 nM.
O=C1N(c2ccc(Br)cc2)C(C2CC2)C(O)(c2ccccc2)N1c1ccc(Br)cc1 (stereo not drawn) [Compound 115, 1,3-bis(4-bromophenyl)-5-cyclopropyl-4-hydroxy-4-phenylimidazolidin-2-one] was tested, and the IC50 was < 1000 nM.
For O=C1N(c2ccc(Br)cc2)[C@@H](C2CC2)C(O)(c2ccccc2)N1c1ccc(Br)cc1 (stereo partly drawn) [Compound 115-1, (5S)-1,3-bis(4-bromophenyl)-5-cyclopropyl-4-hydroxy-4-phenylimidazolidin-2-one], the IC50 was < 1000 nM.
With O=C1N(c2ccc(Br)cc2)[C@H](C2CC2)C(O)(c2ccccc2)N1c1ccc(Br)cc1 (stereo partly drawn) [Compound 115-2, (5R)-1,3-bis(4-bromophenyl)-5-cyclopropyl-4-hydroxy-4-phenylimidazolidin-2-one] the IC50 was < 1000 nM.
With CCCCC1N(c2ccc(Cl)cc2)C(=O)N(c2ccc(Cl)cc2)C1(O)c1cccc(C#N)c1 (stereo not drawn) [Compound 116, 3-(5-butyl-1,3-bis(4-chlorophenyl)-4-hydroxy-2-oxoimidazolidin-4-yl)benzonitrile] the IC50 was < 1000 nM.
For CCCC[C@@H]1N(c2ccc(Cl)cc2)C(=O)N(c2ccc(Cl)cc2)C1(O)c1cccc(C#N)c1 (stereo partly drawn) [Compound 116-1, 3-((5S)-5-butyl-1,3-bis(4-chlorophenyl)-4-hydroxy-2-oxoimidazolidin-4-yl)benzonitrile], the IC50 was < 1000 nM.
